# Like-named read-outs stand apart in the source and are kept apart here.
# Key:
# [1] = system: weeds ABUTH, AMATA, AMBEL, CHEAL, ERICA; assay: Postemergence herbicide evaluation, overall average % weed control across ABUTH, AMATA, AMBEL, CHEAL and ERICA; type: in vivo; conditions: post-emergence, average over five weeds, read-out: Overall Ave % Weed Control; for pest or weed control at 280 g/ha: 280 g ae/ha; for pest or weed control at 560 g/ha: 560 g ae/ha
# Corn (ZEAMX) = assay: Greenhouse post-emergence mixture trials, percent visual control; type: in vivo; conditions: ZEAMX, 21 DAA, no mixing partner; for % Control / plant injury at 560 g/ha: compound 560 g ae/ha
# [2] = Volatility of compounds measured by thermogravimetric analysis (TGA); type: physicochemical
# [3] = system: Common Lambsquarters (CHEAL); assay: Greenhouse post-emergence mixture trials, percent visual control; type: in vivo; conditions: CHEAL, 21 DAA; for pest or weed control at 560 g/ha / pest or weed control at 1120 g/ha: Chenopodium album, post-emergence, 504 h, no mixing partner; for pest or weed control at 1120 g/ha: read-out: % Control
# [4] = system: Amaranthus rudis (AMATA), tall water hemp; assay: Postemergence herbicide evaluation, growth of Amaranthus rudis (AMATA); type: in vivo; conditions: Amaranthus tuberculatus, post-emergence, percent reduction in plant size vs untreated control, read-out: Ave. AMATA; for pest or weed control at 280 g/ha: 280 g ae/ha; for pest or weed control at 560 g/ha: 560 g ae/ha
# [5] = system: glyphosate resistant Conyza canadensis (L.) (ERICA), horseweed; assay: Postemergence herbicide evaluation, growth of Conyza canadensis (ERICA); type: in vivo; conditions: Erigeron canadensis, post-emergence, percent reduction in plant size vs untreated control, read-out: Ave. ERICA; for pest or weed control at 280 g/ha: 280 g ae/ha; for pest or weed control at 560 g/ha: 560 g ae/ha
# [6] = system: Ambrosia artemisiifolia (AMBEL), common ragweed; assay: Postemergence herbicide evaluation, growth of Ambrosia artemisiifolia (AMBEL); type: in vivo; conditions: Ambrosia artemisiifolia, post-emergence, percent reduction in plant size vs untreated control, read-out: AVE. AMBEL; for pest or weed control at 280 g/ha: 280 g ae/ha; for pest or weed control at 560 g/ha: 560 g ae/ha
# [7] = system: Abutilon theophrasti (ABUTH), velvetleaf; assay: Postemergence herbicide evaluation, growth of Abutilon theophrasti (ABUTH); type: in vivo; conditions: Abutilon theophrasti, post-emergence, percent reduction in plant size vs untreated control, read-out: AVE. ABUTH; for pest or weed control at 280 g/ha: 280 g ae/ha; for pest or weed control at 560 g/ha: 560 g ae/ha
# [8] = system: Chenopodium album (CHEAL), common lambsquarters; assay: Postemergence herbicide evaluation, growth of Chenopodium album (CHEAL); type: in vivo; conditions: Chenopodium album, post-emergence, percent reduction in plant size vs untreated control, read-out: Ave. CHEAL; for pest or weed control at 280 g/ha: 280 g ae/ha; for pest or weed control at 560 g/ha: 560 g ae/ha
# Velvetleaf (ABUTH) = assay: Greenhouse post-emergence mixture trials, percent visual control; type: in vivo; conditions: ABUTH, 21 DAA; for pest or weed control at 560 g/ha / pest or weed control at 1120 g/ha: Abutilon theophrasti, post-emergence, 504 h; for pest or weed control at 560 g/ha: compound 560 g ae/ha; for pest or weed control at 1120 g/ha: compound 1120 g ae/ha, read-out: % Control
# [9] = Trial Bridge 2, compound 560 g ae/ha + Saflufenacil 25 g ai or ae/ha
# [10] = Trial Bridge 2, compound 560 g ae/ha + Saflufenacil 75 g ai or ae/ha
# [11] = Trial Bridge 2, compound 560 g ae/ha + Trifludimoxazin 12.5 g ai or ae/ha
# [12] = Trial Bridge 2, compound 560 g ae/ha + Trifludimoxazin 50 g ai or ae/ha
# [13] = Trial Bridge 2, compound 1120 g ae/ha + Saflufenacil 25 g ai or ae/ha
# [14] = Trial Bridge 2, compound 1120 g ae/ha + Saflufenacil 75 g ai or ae/ha
# [15] = Trial Bridge 2, compound 1120 g ae/ha + Trifludimoxazin 12.5 g ai or ae/ha
# [16] = Trial Bridge 2, compound 1120 g ae/ha + Trifludimoxazin 50 g ai or ae/ha
# [17] = Trial Bridge 1, compound 560 g ae/ha + Arylex 5 g ai or ae/ha
# [18] = Trial Bridge 1, compound 560 g ae/ha + Mesotrione 150 g ai or ae/ha
# [19] = Trial Bridge 1, compound 1120 g ae/ha + Arylex 5 g ai or ae/ha
# [20] = Trial Bridge 1, compound 1120 g ae/ha + Glufosinate 600 g ai or ae/ha
# [21] = Trial Bridge 1, compound 1120 g ae/ha + Mesotrione 150 g ai or ae/ha
# [22] = no mixing partner, Trial Bridge 3
# [23] = Trial Bridge 1, mixing partner none
# [24] = Trial Bridge 2, no mixing partner
compound,measurement,setting,value
O=C(COc1ccc(Cl)cc1Cl)Nc1cccnc1 [Compound D27],pest or weed control at 280 g/ha,"[1]; 168 h, 7 DAA",78%
same,pest or weed control at 560 g/ha,"[1]; 168 h, 7 DAA",84.4%
same,pest or weed control at 280 g/ha,"[1]; 336 h, 14 DAA",87.3%
same,pest or weed control at 560 g/ha,"[1]; 336 h, 14 DAA",97%
same,pest or weed control at 280 g/ha,"[1]; 504 h, 21 DAA",94.9%
same,pest or weed control at 560 g/ha,"[1]; 504 h, 21 DAA",99.3%
same,% Control,Corn (ZEAMX); Trial Bridge 1,5%
same,% Control,Corn (ZEAMX); Trial Bridge 3,5%
same,plant injury at 560 g/ha,"Corn (ZEAMX); Zea mays, post-emergence, 504 h, Trial Bridge 1",5%
same,plant injury at 560 g/ha,"Corn (ZEAMX); Zea mays, post-emergence, 504 h, Trial Bridge 3",5%
same,plant injury at 1120 g/ha,"Corn (ZEAMX); Zea mays, post-emergence, 504 h, compound 1120 g ae/ha, Trial Bridge 3",5%
same,"TGA Data (rate of weight loss, volatility)",[2],0.01 µg/min
same,% Control,[3]; [9],100%
same,% Control,[3]; [10],100%
same,% Control,[3]; [11],100%
same,% Control,[3]; [12],100%
same,% Control,[3]; [13],100%
same,% Control,[3]; [14],100%
same,% Control,[3]; [15],100%
same,% Control,[3]; [16],100%
same,% Control,"[3]; Trial Bridge 3, compound 560 g ae/ha + Sulfentrazone 130 g ai/ha",100%
same,% Control,"[3]; Trial Bridge 3, compound 560 g ae/ha + Sulfentrazone 347 g ai/ha",100%
same,% Control,"[3]; Trial Bridge 3, compound 1120 g ae/ha + Sulfentrazone 130 g ai/ha",100%
same,% Control,"[3]; Trial Bridge 3, compound 1120 g ae/ha + Sulfentrazone 347 g ai/ha",100%
same,pest or weed control at 560 g/ha,"[3]; Trial Bridge 2, compound 560 g ae/ha",95%
same,pest or weed control at 1120 g/ha,"[3]; Trial Bridge 2, compound 1120 g ae/ha",98%
same,pest or weed control at 560 g/ha,"[3]; Trial Bridge 3, compound 560 g ae/ha",95%
same,pest or weed control at 1120 g/ha,"[3]; Trial Bridge 3, compound 1120 g ae/ha",100%
same,pest or weed control at 560 g/ha,"[3]; Trial Bridge 1, compound 560 g ae/ha",98%
same,pest or weed control at 1120 g/ha,"[3]; Trial Bridge 1, compound 1120 g ae/ha",100%
same,% Control,[3]; [17],100%
same,% Control,[3]; [18],100%
same,% Control,[3]; [19],100%
same,% Control,[3]; [20],100%
same,% Control,[3]; [21],100%
same,pest or weed control at 280 g/ha,"[4]; 168 h, 7 DAA",80%
same,pest or weed control at 560 g/ha,"[4]; 168 h, 7 DAA",92%
same,pest or weed control at 280 g/ha,"[4]; 336 h, 14 DAA",92.5%
same,pest or weed control at 560 g/ha,"[4]; 336 h, 14 DAA",90%
same,pest or weed control at 280 g/ha,"[4]; 504 h, 21 DAA",85%
same,pest or weed control at 560 g/ha,"[4]; 504 h, 21 DAA",100%
same,pest or weed control at 280 g/ha,"[5]; 168 h, 7 DAA",67.5%
same,pest or weed control at 560 g/ha,"[5]; 168 h, 7 DAA",85%
same,pest or weed control at 280 g/ha,"[5]; 336 h, 14 DAA",100%
same,pest or weed control at 560 g/ha,"[5]; 336 h, 14 DAA",100%
same,pest or weed control at 280 g/ha,"[5]; 504 h, 21 DAA",98.5%
same,pest or weed control at 560 g/ha,"[5]; 504 h, 21 DAA",99%
same,pest or weed control at 280 g/ha,"[6]; 168 h, 7 DAA",85%
same,pest or weed control at 560 g/ha,"[6]; 168 h, 7 DAA",85%
same,pest or weed control at 280 g/ha,"[6]; 336 h, 14 DAA",77.5%
same,pest or weed control at 560 g/ha,"[6]; 336 h, 14 DAA",99%
same,pest or weed control at 280 g/ha,"[6]; 504 h, 21 DAA",100%
same,pest or weed control at 560 g/ha,"[6]; 504 h, 21 DAA",100%
same,pest or weed control at 280 g/ha,"[7]; 168 h, 7 DAA",75%
same,pest or weed control at 560 g/ha,"[7]; 168 h, 7 DAA",80%
same,pest or weed control at 280 g/ha,"[7]; 336 h, 14 DAA",81.5%
same,pest or weed control at 560 g/ha,"[7]; 336 h, 14 DAA",98.5%
same,pest or weed control at 280 g/ha,"[7]; 504 h, 21 DAA",97%
same,pest or weed control at 560 g/ha,"[7]; 504 h, 21 DAA",100%
same,pest or weed control at 280 g/ha,"[8]; 168 h, 7 DAA",82.5%
same,pest or weed control at 560 g/ha,"[8]; 168 h, 7 DAA",80%
same,pest or weed control at 280 g/ha,"[8]; 336 h, 14 DAA",85%
same,pest or weed control at 560 g/ha,"[8]; 336 h, 14 DAA",97.5%
same,pest or weed control at 280 g/ha,"[8]; 504 h, 21 DAA",94%
same,pest or weed control at 560 g/ha,"[8]; 504 h, 21 DAA",97.5%
same,% Control,"Velvetleaf (ABUTH); compound 560 g ae/ha + Sulfentrazone 347 g ai/ha, Trial Bridge 3",100%
same,% Control,"Velvetleaf (ABUTH); compound 1120 g ae/ha + Sulfentrazone 130 g ai/ha, Trial Bridge 3",100%
same,% Control,"Velvetleaf (ABUTH); compound 1120 g ae/ha + Sulfentrazone 347 g ai/ha, Trial Bridge 3",100%
same,pest or weed control at 560 g/ha,Velvetleaf (ABUTH); [22],100%
same,pest or weed control at 1120 g/ha,Velvetleaf (ABUTH); [22],99%
same,pest or weed control at 560 g/ha,Velvetleaf (ABUTH); [23],100%
same,pest or weed control at 1120 g/ha,Velvetleaf (ABUTH); [23],100%
same,pest or weed control at 560 g/ha,Velvetleaf (ABUTH); [24],100%
same,pest or weed control at 1120 g/ha,Velvetleaf (ABUTH); [24],100%
same,% Control,Velvetleaf (ABUTH); [17],100%
same,% Control,"Velvetleaf (ABUTH); Trial Bridge 1, compound 560 g ae/ha + Glufosinate 600 g ai or ae/ha",100%
same,% Control,"Velvetleaf (ABUTH); Trial Bridge 1, compound 560 g ae/ha + Glyphosate 1120 g ai or ae/ha",100%
same,% Control,Velvetleaf (ABUTH); [18],100%
same,% Control,"Velvetleaf (ABUTH); Trial Bridge 1, compound 560 g ae/ha + diclosulam 35 g ai or ae/ha",100%
same,% Control,Velvetleaf (ABUTH); [19],100%
same,% Control,Velvetleaf (ABUTH); [20],100%
same,% Control,"Velvetleaf (ABUTH); Trial Bridge 1, compound 1120 g ae/ha + Glyphosate 1120 g ai or ae/ha",100%
same,% Control,Velvetleaf (ABUTH); [21],100%
same,% Control,"Velvetleaf (ABUTH); Trial Bridge 1, compound 1120 g ae/ha + diclosulam 35 g ai or ae/ha",100%
same,% Control,Velvetleaf (ABUTH); [9],100%
same,% Control,Velvetleaf (ABUTH); [10],100%
same,% Control,Velvetleaf (ABUTH); [11],100%
same,% Control,Velvetleaf (ABUTH); [12],100%
same,% Control,Velvetleaf (ABUTH); [13],100%
same,% Control,Velvetleaf (ABUTH); [14],100%
same,% Control,Velvetleaf (ABUTH); [15],100%
same,% Control,Velvetleaf (ABUTH); [16],100%
